Laboratory results reported in patent US20220249463A1, “METHODS OF ALTERING CARDIAC REMODELING USING COMPOUNDS THAT PROMOTE GLUCOSE OXIDATION” (IMBRIA PHARMACEUTICALS, INC., priority 2019, published 2022).

How the values were obtained:
[1] = Stability of CV-8972 forms in solvents, X-ray powder diffraction; type: physicochemical
Procedure: Samples from batch 289-MBA-15-A (containing form B) were added to various solvents, incubated under various conditions, and analyzed by X-ray powder diffraction.
Samples from batch 289-MBA-16 (containing forms A and B) were added to various solvents, incubated under various conditions, and analyzed by X-ray powder diffraction.
Samples from batch S-18-0030513 (containing form A) were added to various solvents, incubated under various conditions, and analyzed by X-ray powder diffraction.

TAC mice [2] = assay: TAC mice: left ventricular pressure with Mikro-tip catheter; type: in vivo; conditions: end of 6-week treatment
TAC mice [3] = assay: TAC mice, six weeks treatment: heart weight and heart weight/body weight; type: in vivo; conditions: 6 weeks
[4] = TMZ 6, NA 2.4, CV-8814 7.5, CV-8972 10 mg/kg/day

With `COc1ccc(CN2CCN(CCOC(=O)c3cccnc3)CC2)c(OC)c1OC` [CV-8972, 2-(4-(2,3,4-trimethoxybenzyl)piperazin-1-yl)ethyl nicotinate] the XRPD results ([1]; batch 289-MBA-15-A (containing form B), ACN/H2O (90:10) Aw = 0.83, Slurry, RT, 5 d) was “Form A”, the XRPD results ([1]; batch 289-MBA-15-A (containing form B), Acetone/H2O (90:10) Aw = 0.72, Slurry, RT, 5 d) was “Form A” and the XRPD results ([1]; batch 289-MBA-15-A (containing form B), EtOAc/H2O (97:3) Aw = 0.94, Slurry, RT, 5 d) was “Form A”. The XRPD results ([1]; batch 289-MBA-15-A (containing form B), EtOAc, Slurry, RT, 5 d) was “Form A + Form B”, the XRPD results ([1]; batch 289-MBA-15-A (containing form B), EtOH/H2O (90:10) Aw = 0.52, Slurry, RT, 5 d) was “Form A” and the XRPD results ([1]; batch 289-MBA-15-A (containing form B), EtOH, CC from 60° C.) was “Form C + minor Form A”. The XRPD results ([1]; batch 289-MBA-15-A (containing form B), EtOH, Slurry, RT, 3 d) was “Form A + Form B”, the XRPD results ([1]; batch 289-MBA-15-A (containing form B), IPA/H2O (90:10) Aw = 0.67, Slurry, RT, 5 d) was “Form A” and the XRPD results ([1]; batch 289-MBA-15-A (containing form B), IPA/H2O (98:2) Aw = 0.26, Slurry, RT, 5 d) was “Form A”. The XRPD results ([1]; batch 289-MBA-15-A (containing form B), MEK, Slurry, RT, 5 d) was “Form A”, the XRPD results ([1]; batch 289-MBA-15-A (containing form B), MeOH/H2O (80:20) Aw = 0.48, Slurry, RT, 5 d) was “Form A” and the XRPD results ([1]; batch 289-MBA-15-A (containing form B), MeOH/H2O (95:5) Aw = 0.16, Slurry, RT, 5 d) was “Form A”. For the same compound, the XRPD results ([1]; batch 289-MBA-15-A (containing form B), MeOH, Slurry, RT, 5 d) was “Form A + Form B”, the XRPD results ([1]; batch 289-MBA-15-A (containing form B), no solvent, 100° C., 20 minutes, result wraps over r24-r26: Form B, shifted with minor Form A) was “Form B,” and the XRPD results ([1]; batch 289-MBA-16 (containing forms A and B), EtOAc, Attempted to dissolve at ~60° C., solids remained, cooled slowly to RT, let stir at RT from 60° C. (Table 60)) was “Form A + Form B”. For the same compound, the XRPD results ([1]; batch 289-MBA-16 (containing forms A and B), EtOAc, SC from 60° C. (Table 63)) was “Form A + Form B”, the XRPD results ([1]; batch 289-MBA-16 (containing forms A and B), EtOH, SC from 60° C.) was “Form A + Form C” and the XRPD results ([1]; batch 289-MBA-16 (containing forms A and B), EtOH, Slurry, RT, 3 d (Table 60)) was “Form A + Form B”. For the same compound, the XRPD results ([1]; batch 289-MBA-16 (containing forms A and B), EtOH, Slurry, RT, 3 d (Table 63)) was “Form A + Form B”, the XRPD results ([1]; batch 289-MBA-16 (containing forms A and B), MeOH/H2O (95:5), Slurry, overnight, 1 g scale) was “Form A” and the XRPD results ([1]; batch 289-MBA-16 (containing forms A and B), MeOH, VD w/ MTBE (Table 63)) was “Form A”. The XRPD results ([1]; batch 289-MBA-16 (containing forms A and B), MeOH, Vapor diffusion w/ MTBE (Table 60)) was “Form A”, the XRPD results ([1]; batch 289-MBA-16 (containing forms A and B), THF, SC from 60° C.) was “Form B” and the XRPD results ([1]; batch S-18-0030513 (containing form A), CHCl3, Slurry, RT) was “Form A”. For the same compound, the XRPD results ([1]; batch S-18-0030513 (containing form A), EtOAc, Slurry, RT) was “Form A”, the XRPD results ([1]; batch S-18-0030513 (containing form A), EtOH, Crash cool from 70° C.) was “Form A + Form C” and the XRPD results ([1]; batch S-18-0030513 (containing form A), MEK/H2O 99:1, Slow cool from 70° C.) was “Form A”. The XRPD results ([1]; batch S-18-0030513 (containing form A), THF, Slurry, RT) was “Form A”, the XRPD results ([1]; batch S-18-0030513 (containing form A), no solvent, 80° C., 20 minutes) was “Form A with slight peak shifting” and the XRPD results ([1]; batch S-18-0030513 (containing form A), no solvent, 97% RH Stress of Form A dried at 80° C. for 20 min) was “Form A”. For the same compound, the XRPD results ([1]; batch S-18-0030513 (containing form A), no solvent, 100° C., 20 minutes) was “Form B + Form A, shifted”, the XRPD results ([1]; batch S-18-0030513 (containing form A), no solvent, VO, RT) was “Form A” and the “+dp/dtm” value (TAC mice [2]) was 4541±395 mm Hg/sec. For the same compound, the “-dp/dtm” value (TAC mice [2]) was −4126±339 mm Hg/sec, the “left ventricular developed pressure (LVDP)” value (TAC mice [2]; [4]) was 116±9 mm Hg and the “cardiac remodeling in TAC mice (in words)” value (TAC mice [3]; [4]) was “effectively inhibited cardiac remodeling”. For the same compound, the cardiac mass (TAC mice [3]; TAC mice, TMZ 6, CV-8814 7.5, CV-8972 10 mg/kg/day, osmotic minipump) was 225 ± 11 mg and the “heart weight to body weight ratio” value (TAC mice [3]; TAC mice, TMZ 6, NA 2.4, CV-8814 7.5, CV-8972 10 mg/kg/day, subcutaneous osmotic minipump) was 7.4 ± 0.3 mg/g.
